The record followed here is US7388017B2, “Inhibitors of serine proteases, particularly hepatitis C virus NS3 protease” (Vertex Pharmaceuticals Incorporated, priority 1996, dated 2008).

Starred links: 1 amine or outer side, 2 acyl side, 3 side chain; linkers in the order of their positions; H or OH if unused. Non-standard residues stand in square brackets, D forms with d. Residues, ends and D or L forms follow the SMILES beside them. Groups on a side chain read outwards from the residue. *: point of attachment. NH(1,3-benzodioxol-5-yl) = c1cc2c(cc1N*)OCO2; X19 = O=[N+]([O-])c1cc(N*)ccc1N1CCCCC1; Pyrazinecarbonyl = O=C(c1cnccn1)*; X30 = O=[N+]([O-])c1cccc(N*)c1; pNA = O=[N+]([O-])c1ccc(N*)cc1; X28 = c1ccc(Oc2cccc(N*)c2)cc1; Hyp = O=C(O)[CH]1C[CH](O)CN1; NH(3-MeOPh) = COc1cccc(N*)c1; X3 = c1ccc(-c2ccccc2N*)cc1; 3Abz = Nc1cccc(C(=O)O)c1; X18 = CC(=O)c1cccc(N*)c1; X39 = CC(=O)c1ccc(N*)cc1; X43 = Clc1cc(N*)cc(Cl)n1; X6 = Nc1c(Cl)cc(N*)cc1Cl; X17 = c1nc2ccc(N*)cc2s1; X9 = COc1ccc(OC)c(N*)c1; 2Abz = Nc1ccccc1C(=O)O; X14 = Clc1ccc(N*)cc1Cl; X46 = Clc1cccc(Cl)c1N*; Abu = CC[CH](N)C(=O)O; X34 = N#Cc1cccc(N*)c1; X38 = CC(C)c1ccccc1N*; CO = O=C([*:1])[*:2]; NHBn = c1ccc(CN*)cc1; X47 = COc1ccccc1N*

The assay has as its target T1, HCV NS3 protease (Hepatitis C virus genotype 1a, UniProt P27958).
T1 construct: more particularly HCV NS3 proteases
Description: Enzyme inhibition of HCV NS3 serine protease (cleavage of peptide substrate / EDVV AbuC-p-nitroanilide, with or without NS4A). The class given is biochemical. As to conditions: Enzyme inhibition data; Ki from rate vs [inhibitor] plots, Morrison tight binding competitive inhibition fit; 30 C, pH 7.8; read-out: Ki. Here is the method: Cleavage reactions were quenched by the addition of an equal volume of a mixture of 10% TFA:acetonitrile (1:1) and activity was assessed on a reversed phase HPLC column (Rainin C18 Microsorb-MV, […], 4.6×250 mm; 0-50% acetonitrile, 0.1% TFA@ 3.33% min) using a Hewlett Packard 1050 instrument with auto-injection and diode array detection at 210 nm and 280 nm (where appropriate). Peptide elution fragments were collected and identified by mass spectrometry and N-terminal sequence analysis. Fragment identity and concentration was further verified by authentic, synthesized products. Initial rates of cleavage were determined at <20% substrate conversion and catalytic parameters were determined assuming Michaelis-Menten kinetics using the MultiFit program (Day Computing, Cambridge, Mass.).
Spectrophotometric assays were run in a 96-well microtiter plate at 30 C, using a SpectraMax 250 reader (Molecular Devices, Sunnyvale, Calif.) with kinetic capability. Cleavage of EDVV AbuC-p-nitroanilide (5A-pNA) substrate was performed with or without […] in the same buffer used for HPLC assays at 30 C, and pNA release was monitored at 405 nm. The extinction-coefficient of p-nitroaniline is independent of pH at values of 5.5. and above [Tuppy, H., et al., Hoppe-Seyler's Z. Physiol. Chem., 329, pp. 278-288 (1962)]; Raybuck and Luong, unpublished observations).
Kinetic constants for the rapid equilibrium ordered bisubstrate reaction were determined from rate vs [4A], [EDVV AbuC-pNA] data by non-linear least squares fitting to equation 1 [Morrison, J. F. Biochim. Biophys. Acta, 185, pp. 269-286 (1969)] as described in the text. Kii and Kis values for peptidyl inhibitors were determined from rate vs [inhibitor], [substrate] data and fitting to the equation for mixed inhibition: rate=Vmax[S]/{Km(1+[I]/Kis)+[S](1+[I]/Kii)} The commercial program KinetAsyst (StateCollege, Pa.) was used for both procedures. Ki values were calculated from rate vs [inhibitor] plots by a nonlinear least squares fit of the data to the equation of Morrison for tight binding competitive inhibition [Morrison, J. F. Biochim. Biophys. Acta, 185, pp. 269-286 (1969)]. The KineTic program (BioKin Ltd) was used for this procedure.
Ki values are expressed in μM. Category “A” indicates <1 μM inhibition; category “B” indicates 1-100 μM inhibition; category “C” indicates >100 μM.

T1 sequence (P27958 1027-1208): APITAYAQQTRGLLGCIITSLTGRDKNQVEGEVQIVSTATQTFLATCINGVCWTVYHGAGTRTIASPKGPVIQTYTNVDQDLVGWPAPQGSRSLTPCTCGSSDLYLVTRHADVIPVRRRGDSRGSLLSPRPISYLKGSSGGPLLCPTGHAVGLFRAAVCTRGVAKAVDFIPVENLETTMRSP

On to `CCC(C=O)NC(=O)C1CC(OC(=O)Nc2cc(Cl)c(N)c(Cl)c2)CN1C(=O)C(NC(=O)C(NC(=O)c1cnccn1)C(C)C)C(C)C` (stereo not shown) [Compound 33] (Pyrazinecarbonyl-VV[Hyp]([CO-X6])[Abu]-aldehyde; configuration not given here), for which the inhibition constant (Ki) (in general, the dissociation constant of the complex between target and ligand, obtained from inhibition or displacement) was above 100 µM.
Regarding `CCC(C=O)NC(=O)C1CC(OC(=O)Nc2ccc(N3CCCCC3)c([N+](=O)[O-])c2)CN1C(=O)C(NC(=O)C(NC(=O)c1cnccn1)C(C)C)C(C)C` (stereo not shown) [Compound 34] (Pyrazinecarbonyl-VV[Hyp]([CO-X19])[Abu]-aldehyde; configuration not given here), the Ki is 1 to 100 µM.
As for `CCC(C=O)NC(=O)C1CC(OC(=O)Nc2ccc3ncsc3c2)CN1C(=O)C(NC(=O)C(NC(=O)c1cnccn1)C(C)C)C(C)C` (stereo not shown) [Compound 35] (Pyrazinecarbonyl-VV[Hyp]([CO-X17])[Abu]-aldehyde; configuration not given here), the figure is 1 to 100 µM; as for `CCC(C=O)NC(=O)C1CC(OC(=O)Nc2cccc(C(C)=O)c2)CN1C(=O)C(NC(=O)C(NC(=O)c1cnccn1)C(C)C)C(C)C` (stereo not shown) [Compound 36] (Pyrazinecarbonyl-VV[Hyp]([CO-X18])[Abu]-aldehyde; configuration not given here), above 100 µM.
Consider `CCC(C=O)NC(=O)C1CC(OC(=O)Nc2ccc(C(C)=O)cc2)CN1C(=O)C(NC(=O)C(NC(=O)c1cnccn1)C(C)C)C(C)C` (stereo not shown) [Compound 37] (Pyrazinecarbonyl-VV[Hyp]([CO-X39])[Abu]-aldehyde; configuration not given here), for which the inhibitory constant (Ki) fell in the range of 1 to 100 µM.
As for `CCC(C=O)NC(=O)C1CC(OC(=O)Nc2cccc(C#N)c2)CN1C(=O)C(NC(=O)C(NC(=O)c1cnccn1)C(C)C)C(C)C` (stereo not shown) [Compound 38] (Pyrazinecarbonyl-VV[Hyp]([CO-X34])[Abu]-aldehyde; configuration not given here), the figure is 1 to 100 µM.
As for `CCC(C=O)NC(=O)C1CC(OC(=O)Nc2ccc([N+](=O)[O-])cc2)CN1C(=O)C(NC(=O)C(NC(=O)c1cnccn1)C(C)C)C(C)C` (stereo not shown) [Compound 39] (Pyrazinecarbonyl-VV[Hyp]([CO-pNA])[Abu]-aldehyde; configuration not given here), the figure is 1 to 100 µM.
Regarding `CCC(C=O)NC(=O)C1CC(OC(=O)Nc2cccc([N+](=O)[O-])c2)CN1C(=O)C(NC(=O)C(NC(=O)c1cnccn1)C(C)C)C(C)C` (stereo not shown) [Compound 40] (Pyrazinecarbonyl-VV[Hyp]([CO-X30])[Abu]-aldehyde; configuration not given here), the inhibition constant Ki fell in the range of 1 to 100 µM.
As for `CCC(C=O)NC(=O)C1CC(OC(=O)Nc2cc(OC)ccc2OC)CN1C(=O)C(NC(=O)C(NC(=O)c1cnccn1)C(C)C)C(C)C` (stereo not shown) [Compound 41] (Pyrazinecarbonyl-VV[Hyp]([CO-X9])[Abu]-aldehyde; configuration not given here), the figure is 1 to 100 µM.
For the molecule `CCC(C=O)NC(=O)C1CC(OC(=O)Nc2cccc(OC)c2)CN1C(=O)C(NC(=O)C(NC(=O)c1cnccn1)C(C)C)C(C)C` (stereo not shown) [Compound 42] (Pyrazinecarbonyl-VV[Hyp]([CO-NH(3-MeOPh)])[Abu]-aldehyde; configuration not given here), the Ki was 1 to 100 µM.
For `CCC(C=O)NC(=O)C1CC(OC(=O)Nc2ccccc2OC)CN1C(=O)C(NC(=O)C(NC(=O)c1cnccn1)C(C)C)C(C)C` (stereo not shown) [Compound 43] (Pyrazinecarbonyl-VV[Hyp]([CO-X47])[Abu]-aldehyde; configuration not given here) the value was 1 to 100 µM.
In the case of `CCC(C=O)NC(=O)C1CC(OC(=O)Nc2ccc3c(c2)OCO3)CN1C(=O)C(NC(=O)C(NC(=O)c1cnccn1)C(C)C)C(C)C` (stereo not shown) [Compound 44] (Pyrazinecarbonyl-VV[Hyp]([CO-NH(1,3-benzodioxol-5-yl)])[Abu]-aldehyde; configuration not given here), the inhibitory constant (Ki) lay in the range of 1 to 100 µM.
Regarding `CCC(C=O)NC(=O)C1CC(OC(=O)Nc2c(Cl)cccc2Cl)CN1C(=O)C(NC(=O)C(NC(=O)c1cnccn1)C(C)C)C(C)C` (stereo not shown) [Compound 45] (Pyrazinecarbonyl-VV[Hyp]([CO-X46])[Abu]-aldehyde; configuration not given here), the inhibition constant (Ki) lay within 1 to 100 µM.
As for `CCC(C=O)NC(=O)C1CC(OC(=O)Nc2ccc(Cl)c(Cl)c2)CN1C(=O)C(NC(=O)C(NC(=O)c1cnccn1)C(C)C)C(C)C` (stereo not shown) [Compound 46] (Pyrazinecarbonyl-VV[Hyp]([CO-X14])[Abu]-aldehyde; configuration not given here), the inhibition constant (Ki) was in the range of 1 to 100 µM.
For `CCC(C=O)NC(=O)C1CC(OC(=O)NCc2ccccc2)CN1C(=O)C(NC(=O)C(NC(=O)c1cnccn1)C(C)C)C(C)C` (stereo not shown) [Compound 50] (Pyrazinecarbonyl-VV[Hyp]([CO-NHBn])[Abu]-aldehyde; configuration not given here) the value was 1 to 100 µM.
For the molecule `CCC(C=O)NC(=O)C1CC(OC(=O)Nc2cc(Cl)nc(Cl)c2)CN1C(=O)C(NC(=O)C(NC(=O)c1cnccn1)C(C)C)C(C)C` (stereo not shown) [Compound 51] (Pyrazinecarbonyl-VV[Hyp]([CO-X43])[Abu]-aldehyde; configuration not given here), the Ki lay in the range of 1 to 100 µM.
For `CCC(C=O)NC(=O)C1CC(OC(=O)Nc2ccccc2-c2ccccc2)CN1C(=O)C(NC(=O)C(NC(=O)c1cnccn1)C(C)C)C(C)C` (stereo not shown) [Compound 52] (Pyrazinecarbonyl-VV[Hyp]([CO-X3])[Abu]-aldehyde; configuration not given here), the inhibition constant (Ki) was 1 to 100 µM.
For `CCC(C=O)NC(=O)C1CC(OC(=O)Nc2cccc(Oc3ccccc3)c2)CN1C(=O)C(NC(=O)C(NC(=O)c1cnccn1)C(C)C)C(C)C` (stereo not shown) [Compound 53] (Pyrazinecarbonyl-VV[Hyp]([CO-X28])[Abu]-aldehyde; configuration not given here) the value was 1 to 100 µM; for `CCC(C=O)NC(=O)C1CC(OC(=O)Nc2ccccc2C(C)C)CN1C(=O)C(NC(=O)C(NC(=O)c1cnccn1)C(C)C)C(C)C` (stereo not shown) [Compound 54] (Pyrazinecarbonyl-VV[Hyp]([CO-X38])[Abu]-aldehyde; configuration not given here), 1 to 100 µM.
In the case of `CCC(C=O)NC(=O)C1CC(OC(=O)Nc2ccccc2C(=O)OC)CN1C(=O)C(NC(=O)C(NC(=O)c1cnccn1)C(C)C)C(C)C` (stereo not shown) [Compound 55] (Pyrazinecarbonyl-VV[Hyp]([CO-2Abz-OMe])[Abu]-aldehyde; configuration not given here), the inhibition constant (Ki) is 1 to 100 µM.
As for `CCOC(=O)c1cccc(NC(=O)OC2CC(C(=O)NC(C=O)CC)N(C(=O)C(NC(=O)C(NC(=O)c3cnccn3)C(C)C)C(C)C)C2)c1` (stereo not shown) [Compound 56] (Pyrazinecarbonyl-VV[Hyp]([CO-3Abz-OEt])[Abu]-aldehyde; configuration not given here), the figure is above 100 µM.
For `CCC(C=O)NC(=O)C1CC(NC(=O)c2ccc(Cl)c(Cl)c2)CN1C(=O)C(NC(=O)C(NC(=O)c1cnccn1)C(C)C)C(C)C` (stereo not shown) [Compound 57] the value was 1 to 100 µM; for `CCC(C=O)NC(=O)C1CC(NC(=O)NCc2ccccc2)CN1C(=O)C(NC(=O)C(NC(=O)c1cnccn1)C(C)C)C(C)C` (stereo not shown) [Compound 58], 1 to 100 µM; for `CCC(C=O)NC(=O)C1CC(NC(=O)N2CCOCC2)CN1C(=O)C(NC(=O)C(NC(=O)c1cnccn1)C(C)C)C(C)C` (stereo not shown) [Compound 59], 1 to 100 µM.
In the case of `CCC(C=O)NC(=O)C1CC(NC(=O)OCc2ccccc2)CN1C(=O)C(NC(=O)C(NC(=O)c1cnccn1)C(C)C)C(C)C` (stereo not shown) [Compound 60], the Ki was above 100 µM.
For the molecule `C=CCOC(=O)NC1CC(C(=O)NC(C=O)CC)N(C(=O)C(NC(=O)C(NC(=O)c2cnccn2)C(C)C)C(C)C)C1` (stereo not shown) [Compound 61], the inhibition constant (Ki) was above 100 µM.
As for `CCC(C=O)NC(=O)C1CC(NC(=O)c2ccccc2)CN1C(=O)C(NC(=O)C(NC(=O)c1cnccn1)C(C)C)C(C)C` (stereo not shown) [Compound 62], the figure is 1 to 100 µM; as for `CCC(C=O)NC(=O)C1CC(NC(=O)CCc2ccccc2)CN1C(=O)C(NC(=O)C(NC(=O)c1cnccn1)C(C)C)C(C)C` (stereo not shown) [Compound 63], 1 to 100 µM; as for `CCC(C=O)NC(=O)C1CC(NC(=O)C(=O)c2ccccc2)CN1C(=O)C(NC(=O)C(NC(=O)c1cnccn1)C(C)C)C(C)C` (stereo not shown) [Compound 64], 1 to 100 µM.
As for `CCC(C=O)NC(=O)C1CC(NS(=O)(=O)Cc2ccccc2)CN1C(=O)C(NC(=O)C(NC(=O)c1cnccn1)C(C)C)C(C)C` (stereo not shown) [Compound 65], the figure is 1 to 100 µM.
For `CCC(C=O)NC(=O)C1CC(NCc2ccccc2)CN1C(=O)C(NC(=O)C(NC(=O)c1cnccn1)C(C)C)C(C)C` (stereo not shown) [Compound 67] the value was above 100 µM.
